The values that follow come from patent US20260376293A1, “METHODS FOR STUDYING GPR158 PHARMACOLOGY AND IDENTIFICATION OF ITS LIGANDS” (UNIVERSITY OF FLORIDA RESEARCH FOUNDATION, INCORPORATED, priority 2022, published 2026).

The test has as its target T1, GPR158 S266A mutant (Homo sapiens, UniProt Q5T848, S266A).
T1 construct: RGS7/Gβ5 co-expressed in the GAP BRET row only
T1 sequence (Q5T848 24-1215 S266A): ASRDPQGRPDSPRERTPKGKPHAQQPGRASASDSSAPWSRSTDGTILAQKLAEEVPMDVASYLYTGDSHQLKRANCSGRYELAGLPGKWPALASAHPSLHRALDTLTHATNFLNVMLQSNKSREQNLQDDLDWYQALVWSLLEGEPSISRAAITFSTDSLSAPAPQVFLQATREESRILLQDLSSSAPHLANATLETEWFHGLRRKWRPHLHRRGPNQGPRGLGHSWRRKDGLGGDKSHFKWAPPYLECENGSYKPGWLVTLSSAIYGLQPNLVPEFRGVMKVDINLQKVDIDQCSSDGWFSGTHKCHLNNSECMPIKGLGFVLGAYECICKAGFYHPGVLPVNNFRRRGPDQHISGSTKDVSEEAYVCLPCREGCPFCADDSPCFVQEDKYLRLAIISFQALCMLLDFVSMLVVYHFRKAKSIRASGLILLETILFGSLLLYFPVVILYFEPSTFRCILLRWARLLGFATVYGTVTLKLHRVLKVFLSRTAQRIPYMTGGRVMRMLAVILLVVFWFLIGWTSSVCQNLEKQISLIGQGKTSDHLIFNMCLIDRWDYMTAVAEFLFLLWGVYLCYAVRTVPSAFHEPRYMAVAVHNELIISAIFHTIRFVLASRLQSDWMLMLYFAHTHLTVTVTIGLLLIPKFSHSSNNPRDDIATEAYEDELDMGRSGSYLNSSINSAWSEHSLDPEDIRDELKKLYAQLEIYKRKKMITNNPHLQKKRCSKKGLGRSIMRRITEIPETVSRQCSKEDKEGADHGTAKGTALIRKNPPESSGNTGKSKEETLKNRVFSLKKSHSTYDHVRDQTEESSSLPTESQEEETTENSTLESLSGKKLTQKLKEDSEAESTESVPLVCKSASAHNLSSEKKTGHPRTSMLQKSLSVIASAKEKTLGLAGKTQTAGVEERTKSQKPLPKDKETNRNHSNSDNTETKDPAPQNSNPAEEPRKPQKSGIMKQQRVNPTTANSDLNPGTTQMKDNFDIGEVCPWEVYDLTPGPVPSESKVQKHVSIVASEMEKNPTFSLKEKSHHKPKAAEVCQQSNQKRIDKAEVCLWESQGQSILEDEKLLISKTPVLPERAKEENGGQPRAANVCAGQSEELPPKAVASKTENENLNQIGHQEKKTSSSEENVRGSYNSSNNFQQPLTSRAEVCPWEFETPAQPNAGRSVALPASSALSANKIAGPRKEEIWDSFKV
Description: Radioligand binding assay on GPR158 mutant S266A. The source says:
FIGS. 11A-11G. Probing Cache domain of GPR158 as a ligand binding site A) Computational docking of glycine into putative ligand binding pocket on GPR158 Cache domain. Glycine and directly interacting residues are shown as sticks. Hydrogen bonds and van der Waals interactions are shown as dotted lines. B) Diagram showing interactions in the docked model of glycine against GPR158 Cache domain. Hydrogen bonds are shown as dashed lines, van der Waals interactions are shown as intersecting semicircles, and the secondary structural context of Ser266 and Tyr269 is shown as an arc. Dagger indicates a residue implicated in glycine binding in 11A. C) Radioligand binding assay of ^3H-glycine in cells expressing GPR158 mutants. Data shown mean±s.e.m. of 3 independent experiments, *p<0.05, ns=p>0.05 one-way ANOVA. D) Functional evaluation of GPR158 mutants in GAP BRET assay. Error bars are mean±s.e.m. of 3 independent experiments in triplicate. *p<0.05, **p<0.01, ***p<0.001, ****p<0.0001, ns=p>0.05, two-way ANOVA Columns with no fill (Ctrl), columns with angled-line fill (Glycine) E) Quantification of glycine inhibitory effect on kGAP normalized to the effect seen with WT receptor. […]
Whole cell binding was performed using cDNA of GPR158-venus or each GPR158-venus mutant or empty pcDNA3.1+ for ctrl cells. […] Finally radioactivity was measured using the liquid scintillation analyzer Tri-Carb 4910 TR.

As to `NCC(=O)O` [glycine], the glycine binding entry was “normally bind glycine”.
